Read-outs that look alike come from different tables or passages of the source.
Legend:
HCV = details: reported in Hopkins, S. et al., 2010; read-out: in vitro anti-HCV activity (EC50); cited from earlier work
[1] = tested on: HCV replicon in cell line ET (luc-ubi-neo/ET), Huh7 human hepatoma cells; experiment: HCV subgenomic replicon assay (luciferase end point); assay type: cell-based
Experimental: The anti-HCV activity of cyclosporine derivatives were evaluated in the HCV subgenomic replicon assay. The assay use the cell line ET (luc-ubi-neo/ET), which is a Huh7 human hepatoma cell line harboring an HCV replicon with a stable luciferase (Luc) reporter. HCV RNA replication was assessed by quantifying HCV replicon-derived luciferase activity. The antiviral activity of cyclosporine analogs were evaluated after drug treatment, the EC 50 and EC 90 were determined in subsequent assessments by using the luciferase end point (Krieger, N., et al., 2001, J. Virol. 75, 4614-4624; Pietschmann, T., et al., 2002, J. Virol. 76, 4008-4021; each of which is incorporated herein by reference).

[2] = Hepatitis C virus, Huh-7, read-out: Antiviral activity: IC50 (μM)

## C/C=C/C[C@@H](C)[C@@H](O)[C@H]1C(=O)N[C@@H](CC)C(=O)N(C)[C@H](SCCN(C)C)C(=O)N(C)[C@@H](CC(C)(C)O)C(=O)N[C@@H](C(C)C)C(=O)N(C)[C@@H](CC(C)C)C(=O)N[C@@H](C)C(=O)N[C@H](C)C(=O)N(C)[C@@H](CC(C)C)C(=O)N(C)[C@@H](CC(C)C)C(=O)N(C)[C@@H](C(C)C)C(=O)N1C [SCY-635]
HCV
  EC50: 100 nM

## C/C=C/C[C@@H](C)[C@@H](O)[C@H]1C(=O)N[C@@H](CC)C(=O)N(C)[C@H](CCN(C)C)C(=O)N(C)[C@@H](CC(C)(C)OC)C(=O)N[C@@H](C(C)C)C(=O)N(C)[C@@H](CC(C)C)C(=O)N[C@@H](C)C(=O)N[C@H](C)C(=O)N(C)[C@@H](CC(C)C)C(=O)N(C)[C@@H](CC(C)C)C(=O)N(C)[C@@H](C(C)C)C(=O)N1C [Example 21, [(R)-2-(N,N-Dimethylamino)ethyl-Sar]-3-[(γ-methoxy)-NMeLeu]-4-cyclosporin]
[1]; [2]
  IC50: < 0.25 µM

## C/C=C/C[C@@H](C)[C@@H](O)[C@H]1C(=O)N[C@@H](CC)C(=O)N(C)[C@@H](CCN(CC)CC)C(=O)N(C)[C@@H](CC(C)(C)O)C(=O)N[C@@H](C(C)C)C(=O)N(C)[C@@H](CC(C)C)C(=O)N[C@@H](C)C(=O)N[C@H](C)C(=O)N(C)[C@@H](CC(C)C)C(=O)N(C)[C@@H](CC(C)C)C(=O)N(C)[C@@H](C(C)C)C(=O)N1C [Example 33, [(S)-2-(N,N-Diethylamino)ethyl-Sar]-3-[(γ-hydroxy)-NMeLeu]-4-Cyclosporin]
[1]; [2]
  IC50: < 5 µM

## [(R,S)-2-(N,N-Dimethylamino)ethyl-Sar]-3-cyclosporin
[1]; HCV replicon-derived luciferase activity, Huh7 ET cells, read-out: Antiviral activity: IC50
  IC50: < 1.5 µM
